Data from patent US20230091047A1 (priority 2019, published 2023).

Experiments:
in vitro = assay type: cell-based; details: human, HepG2 or HepG2.117 cells, 3-days incubation (unmarked values), ATPlite; mean value
Outline: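 Luminescent ATP quantitation served as the viability endpoint following a 3- or 4-day incubation with test compounds.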

[1] = tested on: HBV (HepG2.117 cell line, inducibly HBV producing); experiment: Anti-HBV activity: intracellular HBV DNA by real-time PCR in HepG2.117 cells after 3 days of treatment; assay type: cell-based, hepatitis B virus; details: Hepatitis B virus, HepG2.117, 72 h, HepG2.117 cells, 3 days of treatment, intracellular HBV DNA by real-time PCR; mean value; read-out: EC50 (μM, mean value)
Outline: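 Inducible HBV-producing HepG2.117 line (Tet-off); 3-day exposure to serially diluted compound after induction; real-time PCR of intracellular viral DNA.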

Structure (SMILES) | CC50 at 3 days (in vitro) | EC50 [1]
CC(C)Nc1nc2c(c(=O)n1[C@H]1CC[C@H](C(=O)O)CC1)C[C@@H](C)N(C(=O)c1ccc(Cl)c(Cl)c1)C2 [Compound C254, trans-4-[(6R)-7-(3,4-dichlorobenzoyl)-6-methyl-4-oxo-2-[(propan-2-yl)amino]-5,6,7,8-tetrahydropyrido[3,4-d]pyrimidin-3(4H)-yl]cyclohexane-1-carboxylic acid] | > 50 µM | 1.99 µM
CNC(=O)[C@H]1CC[C@H](n2c(NC(C)C)nc3c(c2=O)C[C@@H](C)N(C(=O)c2ccc(Cl)c(Cl)c2)C3)CC1 [Compound C255, trans-4-[(6R)-7-(3,4-dichlorobenzoyl)-6-methyl-4-oxo-2-[(propan-2-yl)amino]-5,6,7,8-tetrahydropyrido[3,4-d]pyrimidin-3(4H)-yl]-N-methylcyclohexane-1-carboxamide] | > 50 µM | 0.09 µM
CC[C@@H](C)Nc1nc2c(c(=O)n1-c1ccc(C(=O)NC)cc1)C[C@@H](C)N(C(=O)c1ccc(Cl)c(Cl)c1)C2 [Compound C258, 4-[(6R)-2-{[(2R)-butan-2-yl]amino}-7-(3,4-dichlorobenzoyl)-6-methyl-4-oxo-5,6,7,8-tetrahydropyrido[3,4-d]pyrimidin-3(4H)-yl]-N-methylbenzamide] | > 50 µM | 0.05 µM
CNC(=O)C12CC(n3c(NC(C)C)nc4c(c3=O)C[C@@H](C)N(C(=O)c3ccc(Cl)c(Cl)c3)C4)(C1)C2 [Compound C261, 3-[(6R)-7-(3,4-dichlorobenzoyl)-6-methyl-4-oxo-2-[(propan-2-yl)amino]-5,6,7,8-tetrahydropyrido[3,4-d]pyrimidin-3(4H)-yl]-N-methylbicyclo[1.1.1]pentane-1-carboxamide] | > 50 µM | 0.34 µM
CC(C)Nc1nc2c(c(=O)n1[C@H]1CC[C@@H](S(C)(=O)=O)CC1)C[C@@H](C)N(C(=O)c1ccc(Cl)c(Cl)c1)C2 [Compound C262, (6R)-7-(3,4-dichlorobenzoyl)-3-[cis-4-(methanesulfonyl)cyclohexyl]-6-methyl-2-[(propan-2-yl)amino]-5,6,7,8-tetrahydropyrido[3,4-d]pyrimidin-4(3H)-one] | 22.5 µM | 0.11 µM
CNc1noc2ccc(-n3c(NC(C)C)nc4c(c3=O)C[C@@H](C)N(C(=O)c3ccc(Cl)c(Cl)c3)C4)cc12 [Compound C263, (6R)-7-(3,4-dichlorobenzoyl)-6-methyl-3-[3-(methylamino)-1,2-benzoxazol-5-yl]-2-[(propan-2-yl)amino]-5,6,7,8-tetrahydropyrido[3,4-d]pyrimidin-4(3H)-one] | > 50 µM | 0.17 µM
Cc1noc(C)c1-c1ccc(-n2c(NC(C)C)nc3c(c2=O)C[C@@H](C)N(C(=O)c2ccc(Cl)c(Cl)c2)C3)cn1 [Compound C264, (6R)-7-(3,4-dichlorobenzoyl)-3-[6-(3,5-dimethyl-1,2-oxazol-4-yl)pyridin-3-yl]-6-methyl-2-[(propan-2-yl)amino]-5,6,7,8-tetrahydropyrido[3,4-d]pyrimidin-4(3H)-one] | > 50 µM | 0.26 µM
CNC(=O)c1ccc(-n2c(NC(C)C)nc3c(c2=O)C[C@@H](C)N(C(=O)c2ccc(Cl)c(Cl)c2)C3)cn1 [Compound C265] | > 50 µM | 0.18 µM
CC(C)Nc1nc2c(c(=O)n1-c1ccc(C(=O)NC3(C(=O)O)CC3)cc1)C[C@@H](C)N(C(=O)c1ccc(Cl)c(Cl)c1)C2 [Compound C266, 1-{4-[(6R)-7-(3,4-dichlorobenzoyl)-6-methyl-4-oxo-2-[(propan-2-yl)amino]-5,6,7,8-tetrahydropyrido[3,4-d]pyrimidin-3(4H)-yl]benzamido}cyclopropane-1-carboxylic acid] | > 50 µM | 13.4 µM
COC(=O)c1ccn(-c2ccc(-n3c(NC(C)C)nc4c(c3=O)C[C@@H](C)N(C(=O)c3ccc(Cl)c(Cl)c3)C4)cc2)n1 [Compound C267, methyl 1-{4-[(6R)-7-(3,4-dichlorobenzoyl)-6-methyl-4-oxo-2-[(propan-2-yl)amino]-5,6,7,8-tetrahydropyrido[3,4-d]pyrimidin-3(4H)-yl]phenyl}-1H-pyrazole-3-carboxylate] | > 50 µM | 0.21 µM
CNC(=O)c1ccc(-n2c(NC(C)(C)C)nc3c(c2=O)C[C@@H](C)N(C(=O)c2ccc(Cl)c(Cl)c2)C3)cc1 [Compound C269, 4-[(6R)-2-(tert-butylamino)-7-(3,4-dichlorobenzoyl)-6-methyl-4-oxo-5,6,7,8-tetrahydropyrido[3,4-d]pyrimidin-3(4H)-yl]-N-methylbenzamide] | > 50 µM | 0.05 µM
CNC(=O)c1ccc(-n2c(N3CCC[C@@H]3C)nc3c(c2=O)C[C@@H](C)N(C(=O)c2ccc(Cl)c(Cl)c2)C3)cc1 [Compound C271, 4-[(6R)-7-(3,4-dichlorobenzoyl)-6-methyl-2-[(2S)-2-methylpyrrolidin-1-yl]-4-oxo-5,6,7,8-tetrahydropyrido[3,4-d]pyrimidin-3(4H)-yl]-N-methylbenzamide] | 24.9 µM | 0.27 µM
CNC(=O)c1ccc(-n2c(N[C@@H](C)CO)nc3c(c2=O)C[C@@H](C)N(C(=O)c2ccc(Cl)c(Cl)c2)C3)cc1 [Compound C272, 4-[(6R)-7-(3,4-dichlorobenzoyl)-2-{[(2S)-1-hydroxypropan-2-yl]amino}-6-methyl-4-oxo-5,6,7,8-tetrahydropyrido[3,4-d]pyrimidin-3(4H)-yl]-N-methylbenzamide] | > 50 µM | 2.39 µM
CCOC(=O)[C@H]1CC[C@@H](n2c(NC(C)C)nc3c(c2=O)C[C@@H](C)N(C(=O)c2ccc(Cl)c(Cl)c2)C3)CC1 [Compound C273, ethyl cis-4-[(6R)-7-(3,4-dichlorobenzoyl)-6-methyl-4-oxo-2-[(propan-2-yl)amino]-5,6,7,8-tetrahydropyrido[3,4-d]pyrimidin-3(4H)-yl]cyclohexane-1-carboxylate] | 33.4 µM | 0.31 µM
CNC(=O)c1ccc(-n2c(NC(C)C)nc3c(c2=O)C[C@@H](C)N(C(=O)c2ccc(Cl)c(Cl)c2)C3)cc1F [Compound C274, 4-[(6R)-7-(3,4-dichlorobenzoyl)-6-methyl-4-oxo-2-[(propan-2-yl)amino]-5,6,7,8-tetrahydropyrido[3,4-d]pyrimidin-3(4H)-yl]-2-fluoro-N-methylbenzamide] | > 50 µM | 0.09 µM
CNC(=O)c1ccc(-n2c(NCc3c[nH]c4ccc(OC)cc34)nc3c(c2=O)C[C@@H](C)N(C(=O)c2ccc(Cl)c(Cl)c2)C3)cc1 [Compound C275, 4-[(6R)-7-(3,4-dichlorobenzoyl)-2-{[(5-methoxy-1H-indol-3-yl)methyl]amino}-6-methyl-4-oxo-5,6,7,8-tetrahydropyrido[3,4-d]pyrimidin-3(4H)-yl]-N-methylbenzamide] | > 50 µM | 1.58 µM
CNC(=O)c1ccc(-n2c(N[C@@H](C)CCO)nc3c(c2=O)C[C@@H](C)N(C(=O)c2ccc(Cl)c(Cl)c2)C3)cc1 [Compound C276, 4-[(6R)-7-(3,4-dichlorobenzoyl)-2-{[(2S)-4-hydroxybutan-2-yl]amino}-6-methyl-4-oxo-5,6,7,8-tetrahydropyrido[3,4-d]pyrimidin-3(4H)-yl]-N-methylbenzamide] | > 50 µM | 1.68 µM
CNC(=O)c1ccc(-n2c(NCc3c[nH]c4ccccc34)nc3c(c2=O)C[C@@H](C)N(C(=O)c2ccc(Cl)c(Cl)c2)C3)cc1 [Compound C277, 4-[(6R)-7-(3,4-dichlorobenzoyl)-2-{[(1H-indol-3-yl)methyl]amino}-6-methyl-4-oxo-5,6,7,8-tetrahydropyrido[3,4-d]pyrimidin-3(4H)-yl]-N-methylbenzamide] | 40.1 µM | 1.27 µM
CNC(=O)c1ccc(-n2c(Nc3ccon3)nc3c(c2=O)C[C@@H](C)N(C(=O)c2ccc(Cl)c(Cl)c2)C3)cc1 [Compound C278, 4-[(6R)-7-(3,4-dichlorobenzoyl)-6-methyl-2-[(1,2-oxazol-3-yl)amino]-4-oxo-5,6,7,8-tetrahydropyrido[3,4-d]pyrimidin-3(4H)-yl]-N-methylbenzamide] | > 50 µM | 11 µM
CC(C)Nc1ncc(-n2c(NC(C)C)nc3c(c2=O)C[C@@H](C)N(C(=O)c2ccc(Cl)c(Cl)c2)C3)cn1 [Compound C279, (6R)-7-(3,4-dichlorobenzoyl)-6-methyl-2-[(propan-2-yl)amino]-3-{2-[(propan-2-yl)amino]pyrimidin-5-yl}-5,6,7,8-tetrahydropyrido[3,4-d]pyrimidin-4(3H)-one] | > 46 µM | 0.31 µM
CNC(=O)[C@H]1CC[C@@H](n2c(NC(C)C)nc3c(c2=O)C[C@@H](C)N(C(=O)c2ccc(Cl)c(Cl)c2)C3)CC1 [Compound C280, cis-4-[(6R)-7-(3,4-dichlorobenzoyl)-6-methyl-4-oxo-2-[(propan-2-yl)amino]-5,6,7,8-tetrahydropyrido[3,4-d]pyrimidin-3(4H)-yl]-N-methylcyclohexane-1-carboxamide] | 24.6 µM | 0.1 µM
CNC(=O)c1ccc(-n2c(NC(C)C)nc3c(c2=O)C[C@@H](C)N(C(=O)c2ccc(Cl)c(Cl)c2)C3)nn1 [Compound C281, 6-[(6R)-7-(3,4-dichlorobenzoyl)-6-methyl-4-oxo-2-[(propan-2-yl)amino]-5,6,7,8-tetrahydropyrido[3,4-d]pyrimidin-3(4H)-yl]-N-methylpyridazine-3-carboxamide] | > 50 µM | 0.16 µM
CNC(=O)c1ccc(-n2c(NCc3ccc4[nH]ccc4c3)nc3c(c2=O)C[C@@H](C)N(C(=O)c2ccc(Cl)c(Cl)c2)C3)cc1 [Compound C284, 4-[(6R)-7-(3,4-dichlorobenzoyl)-2-{[(1H-indol-5-yl)methyl]amino}-6-methyl-4-oxo-5,6,7,8-tetrahydropyrido[3,4-d]pyrimidin-3(4H)-yl]-N-methylbenzamide] | > 50 µM | 0.13 µM
